The subject of this assay is KK-A^y mice. Briefly: Effects on carbohydrate and lipid metabolism in KK-A^y mouse. The assay is classed as in vivo. Particulars: oral, 4 days; for Percent change of each parameter compared to control group (%): AI: Atherogenic Index = (TC − HDL-C)/HDL-C; for Percent change of each parameter compared to control group (%): BG: plasma glucose level; for Percent change of each parameter compared to control group (%): Ins: plasma insulin level; for Percent change of each parameter compared to control group (%): TG: plasma triglyceride level; for Percent change of each parameter compared to control group (%): HDL-C: serum HDL-C level; for Percent change of each parameter compared to control group (%): (V)LDL-C: sum of VLDL-C and LDL-C level in serum. The protocol:
The experiment was conducted using the compounds described in the Examples as test compounds and Troglitazone (5-[4-(6-hydroxy-2,5,7,8-tetramethylchroman-2-ylmethoxy)benzyl]-2,4-thiazolidinedione) as a control compound.
Each test compound was orally administered to KK-A^y mice (10 week old, male), NIDDM model animal, for 4 days at a given dosage. On the next day of the last administration, blood was collected from tail end blood vessels under non-fasting conditions to prepare heparinized plasma. Thereafter, blood was collected from an abdominal large vein under pentobarbital anesthesia to prepare serum. The glucose level (BG), triglyceride level (TG) and insulin level (Ins) in plasma were measured using a glucose CII-test Wako (Wako Pure Chemical Industries, Ltd), CLINTECH TG-S (IATORON LABORATORIES, INC.) or triglyceride E-test WAKO (Wako Pure Chemical Industries, Ltd), and a rat insulin measurement kit (Morinaga Biochemistry Research Institute) or REBIS-insulin-mouse-T (Mouse Insulin ELISA (TMB) KIT, Shibayagi Co., Ltd), respectively. Also, the sum of VLDL-C level and LDL-C level in serum (hereinafter, referred to as “(V)LDL-C”), total cholesterol level (TC) and HDL-C level were measured using a high performance liquid chromatography system for the measurement of lipoprotein cholesterol (TOSOH CORPORATION). (V)LDL-C level was measured because VLDL-C and LDL-C cannot be measured separately. Atherogenic Index (AI) was calculated according to the following formula: AI=[(TC level)−(HDL-C level)]/(HDL-C level).

On to `Cc1oc(-c2ccccc2)nc1CCCCC1COC(C)(C(=O)O)OC1` (stereo not drawn) [Example 9, 2-Methyl-c-5-[4-(5-methyl-2-phenyloxazol-4-yl)butyl]-1,3-dioxane-r-2-carboxylic acid], for which, under “dose 1 mg/kg”, the “Percent change of each parameter compared to control group (%): AI” value (“Percent change of each parameter … (%): AI” below) is listed as −49%, the “Percent change of each parameter compared to control group (%): BG” value (from here on “Percent change of each parameter … (%): BG”) is recorded as −12%, the “Percent change of each parameter compared to control group (%): Ins” value (shortened to “Percent change of each parameter … (%): Ins”) was −36% and the “Percent change of each parameter compared to control group (%): TG” value (“Percent change of each parameter … (%): TG” for short) is listed as −46%. Also, under “dose 1 mg/kg”, the “Percent change of each parameter compared to control group (%): HDL-C” value (shortened to “Percent change of each parameter … (%): HDL-C”) came out at 36% and the “Percent change of each parameter compared to control group (%): (V)LDL-C” value (shortened to “Percent change of each parameter … (%): (V)LDL-C”) is listed as −29%.

Consider `Cc1ccc(-c2nc(CCCCC3COC(C)(C(=O)O)OC3)c(C)o2)cc1` (stereo not drawn) [Example 11, 2-Methyl-c-5-{4-[5-methyl-2-(p-tolyl)oxazol-4-yl]butyl}-1,3-dioxane-r-2-carboxylic acid], for which, under “dose 3 mg/kg”, the “Percent change of each parameter … (%): AI” value was −91%, the “Percent change of each parameter … (%): BG” value was −36%, the “Percent change of each parameter … (%): Ins” value is recorded as −16% and the “Percent change of each parameter … (%): TG” value was −83%. Further, for the setting “dose 3 mg/kg”, the “Percent change of each parameter … (%): HDL-C” value worked out at 11% and the “Percent change of each parameter … (%): (V)LDL-C” value is −89%.

Take `CC1(C(=O)O)OCC(CCCCc2coc(-c3ccccc3)n2)CO1` (stereo not drawn) [Example 14, 2-Methyl-c-5-[4-(2-phenyloxazol-4-yl)butyl]-1,3-dioxane-r-2-carboxylic acid]: for the setting “dose 1 mg/kg”, the “Percent change of each parameter … (%): AI” value is −45%, the “Percent change of each parameter … (%): BG” value is recorded as −22%, the “Percent change of each parameter … (%): Ins” value is −67% and the “Percent change of each parameter … (%): TG” value is −29%. For the same compound, under “dose 1 mg/kg”, the “Percent change of each parameter … (%): HDL-C” value stood at 19% and the “Percent change of each parameter … (%): (V)LDL-C” value is given as −38%.

Take `Cc1oc(-c2ccc(C(C)(C)C)cc2)nc1CCCCC1COC(C)(C(=O)O)OC1` (stereo not drawn) [Example 18, c-5-{4-[2-(4-tert-Butylphenyl)-5-methyloxazol-4-yl]butyl}-2-methyl-1,3-dioxane-r-2-carboxylic acid]: under “dose 3 mg/kg”, the “Percent change of each parameter … (%): AI” value is on record as −65%, the “Percent change of each parameter … (%): BG” value was −12%, the “Percent change of each parameter … (%): Ins” value is reported as −1% and the “Percent change of each parameter … (%): TG” value is given as −43%. In addition, where the note is “dose 3 mg/kg”, the “Percent change of each parameter … (%): HDL-C” value is on record as 76% and the “Percent change of each parameter … (%): (V)LDL-C” value is listed as −20%.

As for `Cc1oc(-c2ccc(C(F)(F)F)cc2)nc1CCCCC1COC(C)(C(=O)O)OC1` (stereo not drawn) [Example 20, 2-Methyl-c-5-{4-[5-methyl-2-(4-trifluoromethylphenyl)-oxazol-4-yl]butyl}-1,3-dioxane-r-2-carboxylic acid], for the setting “dose 1 mg/kg”, the “Percent change of each parameter … (%): AI” value is −44%, the “Percent change of each parameter … (%): BG” value is on record as −15%, the “Percent change of each parameter … (%): Ins” value was −44% and the “Percent change of each parameter … (%): TG” value is −31%. Where the note is “dose 1 mg/kg”, the “Percent change of each parameter … (%): HDL-C” value amounted to 30% and the “Percent change of each parameter … (%): (V)LDL-C” value is given as −33%.

`CCC1(C(=O)O)OCC(CCCCc2nc(-c3ccccc3)oc2C)CO1` (stereo not drawn) [Example 21, 2-Ethyl-c-5-[4-(5-methyl-2-phenyloxazol-4-yl)butyl]-1,3-dioxane-r-2-carboxylic acid]: where the note is “dose 3 mg/kg”, the “Percent change of each parameter … (%): AI” value is −38%, the “Percent change of each parameter … (%): BG” value is −18%, the “Percent change of each parameter … (%): Ins” value is −26% and the “Percent change of each parameter … (%): TG” value is reported as −52%. Further, for the setting “dose 3 mg/kg”, the “Percent change of each parameter … (%): HDL-C” value came out at 5% and the “Percent change of each parameter … (%): (V)LDL-C” value is given as −26%.

As to `Cc1ccc(-c2nc(CCCCCCOC(C)(C)C(=O)O)c(C)o2)cc1` [Example 37, 2-Methyl-2-{6-[5-methyl-2-(p-tolyl)oxazol-4-yl]hexyloxy}propionic acid], under “dose 3 mg/kg”, the “Percent change of each parameter … (%): AI” value was −70%, the “Percent change of each parameter … (%): BG” value was −5%, the “Percent change of each parameter … (%): Ins” value is −27% and the “Percent change of each parameter … (%): TG” value was −51%. Further, for the setting “dose 3 mg/kg”, the “Percent change of each parameter … (%): HDL-C” value came out at 33% and the “Percent change of each parameter … (%): (V)LDL-C” value is recorded as −54%.

Regarding `Cc1oc(-c2ccccc2)nc1CC#CCCCOC(C)(C)C(=O)O` [Example 38, 2-Methyl-2-[6-(5-methyl-2-phenyloxazol-4-yl)-4-hexynyloxy]propionic acid], for the setting “dose 1 mg/kg”, the “Percent change of each parameter … (%): AI” value is −65%, the “Percent change of each parameter … (%): BG” value is listed as −21%, the “Percent change of each parameter … (%): Ins” value was −39% and the “Percent change of each parameter … (%): TG” value is −50%. Besides, under “dose 1 mg/kg”, the “Percent change of each parameter … (%): HDL-C” value amounted to 38% and the “Percent change of each parameter … (%): (V)LDL-C” value is reported as −38%.

For the compound `Cc1oc(-c2ccc(Cl)cc2)nc1CCCCCCOC(C)(C)C(=O)O` [Example 39, 2-{6-[2-(4-Chlorophenyl)-5-methyloxazol-4-yl]hexyloxy}-2-methylpropionic acid], for the setting “dose 1 mg/kg”, the “Percent change of each parameter … (%): AI” value is recorded as −73%, the “Percent change of each parameter … (%): BG” value is listed as −14%, the “Percent change of each parameter … (%): Ins” value is recorded as −20% and the “Percent change of each parameter … (%): TG” value is −56%. In addition, where the note is “dose 1 mg/kg”, the “Percent change of each parameter … (%): HDL-C” value was 36% and the “Percent change of each parameter … (%): (V)LDL-C” value is listed as −53%.

`Cc1oc(-c2ccccc2)nc1/C=C/CCC1COC(C)(C(=O)O)OC1` (stereo not drawn) [Example 53, 2-Methyl-c-5-[4-(5-methyl-2-phenyloxazol-4-yl)-(E)-3-butenyl]-1,3-dioxane-r-2-carboxylic acid]: where the note is “dose 3 mg/kg”, the “Percent change of each parameter … (%): AI” value was −62%, the “Percent change of each parameter … (%): BG” value is reported as −46%, the “Percent change of each parameter … (%): Ins” value was −37% and the “Percent change of each parameter … (%): TG” value was −51%. Under “dose 3 mg/kg”, the “Percent change of each parameter … (%): HDL-C” value was 3% and the “Percent change of each parameter … (%): (V)LDL-C” value is −49%.

Turning to `Cc1oc(-c2ccccc2)nc1C/C=C/CCCOC(C)(C)C(=O)O` [Example 54, Potassium 2-methyl-2-[6-(5-methyl-2-phenyloxazol-4-yl)-(E)-4-hexenyloxy]propionate], where the note is “dose 1 mg/kg”, the “Percent change of each parameter … (%): AI” value is −83%, the “Percent change of each parameter … (%): BG” value is given as −24%, the “Percent change of each parameter … (%): Ins” value is listed as −14% and the “Percent change of each parameter … (%): TG” value was −72%. Besides, under “dose 1 mg/kg”, the “Percent change of each parameter … (%): HDL-C” value is reported as 24% and the “Percent change of each parameter … (%): (V)LDL-C” value was −77%.

These data come from patent US7030143B2, “Heterocyclic compounds” (Nippon Shinyaku Co., Ltd., priority 2000, dated 2006).
